Measured values published in US20220162610A1, “NOVEL RNA TRANSCRIPT” (PTC Therapeutics, Inc., priority 2020, published 2022).

Legend:
[1] = system: HTT pre-mRNA; test: Ampliseq/RNAseq analysis of intron 49 pseudoexon inclusion and HTT expression in different cell types; type: cell-based, human
[2] = molecular target: T1, MDR1 (Homo sapiens, UniProt P08183); test: MDCK-MDR1 efflux assay; type: in vitro ADME; conditions: 10 μM, MDCK-MDR1 and MDCK-WT monolayers, 1 hour
T1 construct: host or cells: MDCK (Madin-Darby Canine Kidney) cells expressing MDR1
Procedure: The MDR1 efflux assay was conducted at Absorption System LLC (Exton, Pa.). Briefly, MDCK-MDR1 and MDCK-WT cell monolayers were grown to confluence on collagen-coated, microporous membranes in 12-well assay plates (Thermofisher). Compound solutions (10 μM) in permeability assay buffer (Hanks' balanced salt solution (HBSS), 10 mM HEPES, 15 mM glucose; pH of 7.4) were placed in the donor chamber. The receiver chamber was filled with assay buffer plus 1% BSA. Cell monolayers were dosed on the apical side (A-to-B) or basolateral side (B-to-A) and incubated at 37° C. (5% CO2, 100% relative humidity). Sampling from the donor chambers was performed at 0 and 1 hour; and from the receiver chambers at 1 hour. Each determination was performed in duplicate. The flux of lucifer yellow was also measured post-experimentally for each monolayer to ensure no damage was inflicted to the cell monolayers during the flux period. All samples were assayed by LC-MS/MS using electrospray ionisation. The apparent permeability (Papp) and percent recovery was determined using the following equation: […]
dCr/dt represents the slope of the cumulative receiver concentration versus time in μM/s; Vr is the volume of the receiver compartment (cm3); Vd is the volume of the donor compartment in (cm3); A is the area of the insert (1.13 cm2 for 12-well); C0 is the average measured concentration of the donor chamber at time zero in μM; Net Efflux ratio (ER) is defined as […].

[3] = Unbound brain partition coefficient (Kp,uu) from mouse PK studies; type: in vivo; conditions: FVB (WT littermates of the BACHD colony), brain and plasma (unbound), oral, 10 mg/kg, average over animals of multiple mouse PK studies
Procedure: Oral pharmacokinetics (PK) of compounds was evaluated in WT littermates from the BACHD colony (FVB background). Mice were treated with test compounds (10 mg/kg) by oral gavage in 0.5% hydroxypropylmethyl cellulose (HPMC) with 0.1% Tween 80. Blood was collected by terminal cardiac puncture at specified time points (3 mice per time point) and centrifuged to generate plasma. Brain tissue was collected at the time of blood collection and homogenized in water. Protein was precipitated from plasma and brain homogenates with acetonitrile, methanol mixture (5:1, v:v) containing an internal standard that is a close analog of the test compounds. The mixture was filtered through an EMD Millipore MultiScreen™ Solvinert Filter Plate (MSRLN04, Millipore, Burlington, Mass.). Calibration standards were prepared in the same matrix and processed with the testing samples. Filtrates were analysed using Acquity ultra performance liquid chromatography (UPLC) system (Waters Corporation) tandem with Xevo TQ-s Spectrometer (Waters Corporation). Samples were injected on to a Waters UPLC Acquity BEH C18 Column (2.1*50 mm, 1.7 μm) maintained at 50° C. The injection volume was 3 μL and the mobile phase flow rate was 0.45 mL/min. The mobile phase consisted of 2 solvents: A) 0.1% formic acid in water and B) 0.1% formic acid in acetonitrile. The initial mobile phase started with 5% solvent B for 0.4 min, which was changed to […] over 0.8 min with linear gradients and then maintained at 95% solvent B for another 0.4 min. The drug concentrations were acquired and processed with MassLynx 4.1 software. PK parameters were estimated using the non-compartment method within Phoenix® WinNonlin® Build 8.1 (Certara USA, Inc., Princeton, N.J.).
The unbound brain partition coefficient (Kp,uu) is defined as the ratio between unbound brain free drug concentration and unbound plasma concentration. It was calculated using the following equation:
Kp,uu=Cbrain×fu,b/(Cplasma*fu,p)
Cbrain and Cplasma represent the compound concentrations in brain and plasma, respectively. fu,b and fu,p are the unbound fraction of each testing article in brain and plasma, respectively. Both fu,b and fu,p were determined in vitro using Pierce Rapid Equilibrium Dialysis (RED) device at Absorption System LLC (Exton, Pa.). Kp,uu was calculated individually for each animal from multiple mouse PK studies and the average values are reported here.

[4] = system: HTT protein; test: HTT protein electrochemiluminescence (ECL) assay in HD patient fibroblasts, 96 h; type: cell-based, human; conditions: fibroblasts derived from HD patients, 96 h
Procedure: Human fibroblasts derived from a homozygous patient with HD (GM4857) were cultured for 96 hours in the presence of test compounds (in 0.5% DMSO) or controls at 37° C. in a humidified 5% CO2 atmosphere. After 96 hours, cells were lysed and frozen. HTT protein levels were measured in lysates as described below. Compounds that decreased HTT protein levels relative to DMSO control were further tested in a dose response assay.
For analysis in the electrochemiluminescence (ECL) assays, test compounds were serially diluted 3-fold in 100% DMSO (Sigma) to generate a 7-point concentration curve. A solution of test compound (500 nL, 200× in DMSO) was added to each test well with Acoustic Transfer System (EDC Biosystems); final concentration of DMSO was 0.5%. Fibroblasts were seeded in 96-well flat-bottomed plates (Thermo Fisher) at 4×10^3 cells/well in 100 μl of culture medium containing the test compound or DMSO vehicle control and incubated for 96 hours (37° C., 5% CO2, 100% relative humidity). After removal of the supernatant, cells were lysed in 50 μL of 1×LB11 extraction buffer (50 mM Tris (pH 7.4), 300 mM NaCl, 10% [w/v] glycerol, 3 mM EDTA, 1 mM MgCl2, 20 mM glycerophosphate, 25 mM NaF, 1% Triton X-100), containing a Complete™ protease inhibitor cocktail (Roche Diagnostics) with shaking at 4° C. for 30 minutes; the plates were then stored at −20° C.
Meso Scale Discovery® 96-well plates (MSD®) were coated overnight at 4° C. with primary antibodies in phosphate-buffered saline (PBS; 30 μl/well). The plates were washed three times with 0.05% Tween-20 in 1×PBS (PBS-T; 200 μl/well) then blocked (100 μl/well; 5% bovine serum albumin [BSA] in PBS-T) for 5-6 hours at room temperature (RT) with shaking. Plates were then washed three times with PBS-T. Cell lysates were transferred to the antibody coated plates (25 μl/well) and incubated with shaking overnight at 4° C. After removal of the lysates, the plates were washed three times with PBS-T, and 25 μl of detection antibody in 1% BSA, PBS-T was added to each well and incubated with shaking for 1 hour at room temperature. After three washes with PBS-T, 25 μl of Sulfo-Tag secondary antibody (MSD®; 0.25 μg/ml in 1% BSA, PBS-T) was added to each well and incubated with shaking for 1 hour at RT. After washing three times with PBS-T, 150 μl of read buffer T with surfactant (MSD®) was added to each empty well and the plate was imaged on the SI 6000 imager (MSD®) according to manufacturers' instructions for 96-well plates. Primary capture antibodies included: anti-polyglutamine-expanded HTT mouse monoclonal antibody (mAb) clone MW1 (1 μg/mL; Developmental Studies Hybridoma Bank); anti-HTT MAB2166 mAb (1 μg/mL; Millipore); anti-human KRAS rabbit polyclonal antibody (1 μg/mL; Thermo Fisher Scientific). Detection antibodies included: Huntingtin (D7F7) XP® Rabbit mAb (0.25 μg/ml; Cell Signalling Technology®); anti-hKRAS mouse mAb (0.25 μg/ml; LSBIO).

T1 sequence (P08183 whole entry): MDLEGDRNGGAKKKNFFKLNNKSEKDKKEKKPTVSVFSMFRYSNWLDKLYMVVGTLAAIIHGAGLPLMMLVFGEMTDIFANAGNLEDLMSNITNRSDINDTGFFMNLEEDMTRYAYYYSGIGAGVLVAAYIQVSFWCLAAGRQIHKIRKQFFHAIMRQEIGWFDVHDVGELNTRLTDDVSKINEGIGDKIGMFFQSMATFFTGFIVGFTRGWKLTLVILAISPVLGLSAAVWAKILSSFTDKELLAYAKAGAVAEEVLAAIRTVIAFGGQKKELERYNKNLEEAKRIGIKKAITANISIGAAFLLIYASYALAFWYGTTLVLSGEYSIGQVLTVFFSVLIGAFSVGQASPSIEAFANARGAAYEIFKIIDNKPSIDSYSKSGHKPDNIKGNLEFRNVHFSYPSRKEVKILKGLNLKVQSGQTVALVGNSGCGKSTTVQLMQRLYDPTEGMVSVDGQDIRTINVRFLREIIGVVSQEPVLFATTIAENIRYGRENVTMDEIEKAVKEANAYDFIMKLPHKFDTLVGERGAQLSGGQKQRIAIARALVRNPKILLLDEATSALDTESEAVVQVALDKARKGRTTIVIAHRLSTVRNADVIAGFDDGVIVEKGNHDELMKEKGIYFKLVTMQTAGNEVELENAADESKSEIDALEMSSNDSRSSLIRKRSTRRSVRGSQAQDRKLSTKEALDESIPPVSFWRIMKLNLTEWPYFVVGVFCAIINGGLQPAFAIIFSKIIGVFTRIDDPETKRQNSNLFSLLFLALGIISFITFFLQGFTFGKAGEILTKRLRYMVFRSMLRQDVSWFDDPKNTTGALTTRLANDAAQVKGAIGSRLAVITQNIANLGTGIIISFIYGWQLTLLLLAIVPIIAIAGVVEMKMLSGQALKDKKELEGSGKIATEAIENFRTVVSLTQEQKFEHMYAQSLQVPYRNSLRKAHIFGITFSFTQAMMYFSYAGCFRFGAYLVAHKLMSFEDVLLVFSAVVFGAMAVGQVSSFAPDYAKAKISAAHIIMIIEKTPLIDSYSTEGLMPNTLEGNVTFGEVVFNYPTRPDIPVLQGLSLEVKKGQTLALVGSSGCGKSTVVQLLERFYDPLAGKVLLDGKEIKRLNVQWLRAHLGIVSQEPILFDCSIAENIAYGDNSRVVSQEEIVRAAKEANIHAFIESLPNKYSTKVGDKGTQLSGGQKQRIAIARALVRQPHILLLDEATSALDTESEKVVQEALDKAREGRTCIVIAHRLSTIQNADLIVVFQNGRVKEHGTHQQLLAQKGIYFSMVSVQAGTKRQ

Structure (SMILES)	HTT gene expression quantified using RNAseq (FPKM) ([1]; 100 nM, SHSY5Y cells (HTT-C2), TK6 cells (HTT-C3))	inclusion of intron 49 pseudoexon ([1]; HD fibroblasts, SH-SY5Y, TK6, MRC-5 cells)	NET MDR1 ER [2]	Kp uu [3]	HTT protein level [4]
CC1(C)CC(n2nnc3cc(-c4ccc(-n5nccn5)cc4O)nnc32)CC(C)(C)N1 [HTT-C3]	reduced HTT gene expression	induced the inclusion of an Intron 49 pseudoexon	2.0	0.848	
CC(C)c1cc(-c2n[nH]cc2-c2ccc3c(c2)OCO3)c(O)cc1O [HTT-A]					lower HTT protein levels
Cn1c(/C=C/c2ccc(Cl)cc2)c([N+](=O)[O-])c(=O)n(C)c1=O [HTT-B]					lower HTT protein levels
